Legend:
Experiment in all cases: HMF sulfoconjugation assay
Assay type in all cases: biochemical
[1] = molecular target: T1, hSULT1C3 (Homo sapiens, UniProt Q6IMI6)
T1 construct: made in house; host or cells: Salmonella typhimurium TA1538 (cytosolic fraction, not purified)
Description: (§1) Cytosolic fractions containing individual SULT forms were prepared from transgenic S. typhimurium TA1538. Table S1 in the Supplementary Material provides a summary of the thirty SULTs used in the current study together with references describing the cloning of the respective S. typhimurium TA1538 strains. The expressed SULT forms are denoted with the prefixes h, m and r for human, mouse and rat enzymes, respectively. Bacteria were grown in Luria Broth medium containing ampicillin (100 µg/ml) by stirring for 8 h at 200 revolutions/min at 37 °C. The bacterial suspensions were centrifuged at 5,000 g for 10 min. The sediments were washed twice with 25 ml of 10 mM potassium phosphate buffer (pH 7.4)/50 mM potassium chloride (KCP buffer) and centrifuged again. The pellets were taken up in 800 µl KCP buffer and sonicated thrice for 15 s with 30 s pauses in between. The soluble fraction was attained by centrifuging for 1 h at 100,000 g. The supernatants (in the following termed cytosolic preparations) were frozen at −80 °C. The protein concentrations were determined according to a bicinchoninic acid (BCA) assay protocol. The SULT concentrations in the cytosolic preparations were estimated after electrophoretic separation and immunodetection using inclusion bodies of different SULT forms as standards (Teubner et al. [2007]). The preparation of SULT inclusion bodies and the immunodetection of SULTs is described in the Supplementary Material, which also contains a representative immunoblot of different amounts of rSult1a1standard and a cytosolic preparation of S. typhimurium expressing rSult1a1 (Fig. S1).
(§2) The reactions were conducted in mixtures of 100 µl containing 25–200 µg protein, 50 mM potassium phosphate buffer (pH 7.4), 5 mM MgCl2, 50 µM PAPS and different concentrations of HMF at 37 °C. Preliminary experiments ensured that measurements were recorded under ‘linear’ conditions, i.e., doubling of protein concentration or incubation time was doubling the amount of sulfate ester formed. The reactions were stopped after 30 min by adding 300 µl ice-cold 2-propanol, mixed and centrifuged at 15,000 g for 10 min.
(§3) SMF concentrations of the clear supernatants were analyzed by UPLC-MS/MS. The protocol was adapted from the quantification of SMF in plasma samples of HMF-treated mice (Monien et al. [2009]). In short, the supernatants were analyzed using a UPLC system (Waters) connected to a Quattro Premier XE tandem quadrupole mass spectrometer (Waters) using the negative electrospray ionization mode. Samples of 4 µl were injected into a HSS T3 column (1.8 µm, 2.1 × 100 mm; Waters) and eluted with an isocratic flow of 0.35 ml/min 10 mM ammonium acetate/methanol (95:5). The fragmentation reactions of SMF yielding two principal ions, the sulfate ion radical (m/z = 204.9 → 96.0) and the protonated sulfonate ion (m/z = 204.9 → 81.0) were monitored. The tune parameters were as follows: temperature of the electrospray source 120 °C; desolvation temperature 475 °C; desolvation gas nitrogen (800 l/h); cone gas nitrogen (100 l/h); collision gas argon (indicated cell pressure ~5 × 10^−3 mbar). For the fragmentation of SMF, collision energies were 20 and 23 eV for the transitions m/z = 204.9 → 81.0 and m/z = 204.9 → 96.0, respectively. The dwell time was set to 100 ms, and capillary voltage was set to 0.35 kV. The cone and RF1 lens voltages were 32 and 0.2 V, respectively. SMF was quantified using an external calibration line that was linear in the concentration range of 1.0 nM (4 fmol/injection) to 2,500 (10 pmol/injection) SMF (r ^2 ≥ 0.99). Data acquisition and handling were performed with MassLynx 4.1 software (Waters). The limit of detection (LOD) for this technique of 2.5 nM SMF has been reported (Monien et al. [2009]). In the current study, this corresponds to 10 fmol SMF per injection or a reaction rate of 0.5 pmol SMF/mg/min.

[2] = molecular target: T2, mSult2b1b (Mus musculus, UniProt O35400)
T2 construct: made in house; host or cells: Salmonella typhimurium TA1538 (cytosolic fraction, enzyme not purified)
T2 sequence (O35400 1-338): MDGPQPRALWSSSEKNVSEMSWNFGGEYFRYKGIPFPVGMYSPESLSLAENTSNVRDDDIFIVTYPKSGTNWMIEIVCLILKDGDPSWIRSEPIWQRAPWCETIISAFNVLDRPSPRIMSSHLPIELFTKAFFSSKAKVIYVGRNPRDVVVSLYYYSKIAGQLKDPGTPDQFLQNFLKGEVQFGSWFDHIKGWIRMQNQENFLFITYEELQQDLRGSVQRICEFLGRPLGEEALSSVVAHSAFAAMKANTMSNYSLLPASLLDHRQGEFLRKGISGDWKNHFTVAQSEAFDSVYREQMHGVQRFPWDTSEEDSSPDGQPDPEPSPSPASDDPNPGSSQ
Description: as §1, §2, §3

[3] = molecular target: T3, mSult1c2 (Mus musculus, UniProt Q9D939)
T3 construct: made in house; host or cells: Salmonella typhimurium TA1538 (cytosolic fraction, enzyme not purified)
Description: as §1, §2, §3

[4] = molecular target: T4, mSult1a1 (Mus musculus, UniProt P52840)
T4 construct: made in house; host or cells: Salmonella typhimurium TA1538 (cytosolic fraction, enzyme not purified)
Description: as §1, §2, §3

[5] = molecular target: T5, rSult2a1 (Rattus norvegicus, UniProt P15709)
T5 construct: made in house; host or cells: Salmonella typhimurium TA1538 (cytosolic fraction, enzyme not purified)
T5 sequence (P15709 1-284): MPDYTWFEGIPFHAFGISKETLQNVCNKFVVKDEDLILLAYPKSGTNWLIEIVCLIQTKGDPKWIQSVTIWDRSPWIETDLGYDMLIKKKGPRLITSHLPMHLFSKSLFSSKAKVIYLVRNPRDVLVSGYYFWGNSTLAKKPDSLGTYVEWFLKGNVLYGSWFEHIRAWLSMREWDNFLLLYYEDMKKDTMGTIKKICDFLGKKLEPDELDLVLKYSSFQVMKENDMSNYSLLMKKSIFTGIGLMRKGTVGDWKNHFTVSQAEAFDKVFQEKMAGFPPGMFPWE
Description: as §1, §2, §3

T3 sequence (Q9D939 whole entry): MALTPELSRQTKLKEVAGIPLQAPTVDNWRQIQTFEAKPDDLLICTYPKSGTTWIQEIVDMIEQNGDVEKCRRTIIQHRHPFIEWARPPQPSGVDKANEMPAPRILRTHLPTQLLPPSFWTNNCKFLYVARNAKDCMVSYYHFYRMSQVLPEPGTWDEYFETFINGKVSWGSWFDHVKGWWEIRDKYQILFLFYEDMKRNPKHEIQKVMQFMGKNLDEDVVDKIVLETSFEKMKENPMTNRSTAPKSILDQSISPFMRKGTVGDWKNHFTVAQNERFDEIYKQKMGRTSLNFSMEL
T1 sequence (Q6IMI6 whole entry): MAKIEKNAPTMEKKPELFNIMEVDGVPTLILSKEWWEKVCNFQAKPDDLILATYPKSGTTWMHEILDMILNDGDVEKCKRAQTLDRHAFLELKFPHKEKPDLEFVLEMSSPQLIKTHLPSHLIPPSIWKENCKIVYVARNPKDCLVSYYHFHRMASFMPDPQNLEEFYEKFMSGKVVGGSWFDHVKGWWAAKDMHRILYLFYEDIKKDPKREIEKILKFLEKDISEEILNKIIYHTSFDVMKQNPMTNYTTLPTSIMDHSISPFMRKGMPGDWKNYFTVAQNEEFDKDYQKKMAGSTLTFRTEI
T4 sequence (P52840 whole entry): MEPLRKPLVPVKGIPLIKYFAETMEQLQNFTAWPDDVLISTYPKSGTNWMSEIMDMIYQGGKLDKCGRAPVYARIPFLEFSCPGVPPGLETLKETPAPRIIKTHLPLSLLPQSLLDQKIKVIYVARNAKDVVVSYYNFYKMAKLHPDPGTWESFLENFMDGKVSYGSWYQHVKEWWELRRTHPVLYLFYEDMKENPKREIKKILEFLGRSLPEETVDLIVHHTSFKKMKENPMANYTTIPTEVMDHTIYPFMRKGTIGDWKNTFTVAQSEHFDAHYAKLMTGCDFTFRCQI

O=Cc1ccc(CO)o1 [HMF, 5-Hydroxymethylfurfural]
Rate of sulfoconjugation ([1]; 0.1 mM HMF): <0.5 pmol/mg/min | Rate of sulfoconjugation ([1]; 1 mM HMF): 1.0 ± 0.1 pmol/mg/min | Rate of sulfoconjugation ([1]; 10 mM HMF): 7.2 ± 0.9 pmol/mg/min | Rate of sulfoconjugation ([1]; 100 mM HMF): 3.6 ± 0.2 pmol/mg/min | Rate of sulfoconjugation ([2]; 0.1 mM HMF): <0.5 pmol/mg/min | Rate of sulfoconjugation ([2]; 1 mM HMF): <0.5 pmol/mg/min | Rate of sulfoconjugation ([2]; 10 mM HMF): <0.5 pmol/mg/min | Rate of sulfoconjugation ([2]; 100 mM HMF): <0.5 pmol/mg/min | Rate of sulfoconjugation ([3]; 0.1 mM HMF): <0.5 pmol/mg/min | Rate of sulfoconjugation ([3]; 1 mM HMF): 2.0 ± 0.2 pmol/mg/min | Rate of sulfoconjugation ([3]; 10 mM HMF): 16.2 ± 1.1 pmol/mg/min | Rate of sulfoconjugation ([3]; 100 mM HMF): 92.4 ± 6.7 pmol/mg/min | Rate of sulfoconjugation ([4]; 0.1 mM HMF): 76.6 ± 14.4 pmol/mg/min | Rate of sulfoconjugation ([4]; 1 mM HMF): 722 ± 93 pmol/mg/min | Rate of sulfoconjugation ([4]; 10 mM HMF): 2,010 ± 210 pmol/mg/min | Rate of sulfoconjugation ([4]; 100 mM HMF): 1,970 ± 70 pmol/mg/min | K M ([4]; HMF sulfoconjugation, Michaelis-Menten fit): 2000 ± 300 µM | Rate of sulfoconjugation ([5]; 0.1 mM HMF): <0.5 pmol/mg/min | Rate of sulfoconjugation ([5]; 1 mM HMF): 1.8 ± 0.1 pmol/mg/min | Rate of sulfoconjugation ([5]; 10 mM HMF): 17.2 ± 0.6 pmol/mg/min | Rate of sulfoconjugation ([5]; 100 mM HMF): 58.9 ± 4.6 pmol/mg/min

Reference: publication PMC4710668, “Bioactivation of food genotoxicants 5-hydroxymethylfurfural and furfuryl alcohol by sulfotransferases from human, mouse and rat: a comparative study” (Archives of Toxicology, 2014)
